Test results published in patent US20250136595A1, “ACYLATED HETEROCYCLIC QUINAZOLINE DERIVATIVES AS INHIBITORS OF ERBB2” (Enliven Inc., priority 2022, published 2025).

Key:
[1] = target: T1, phosphorylated EGFR (pEGFR) (Homo sapiens, UniProt P00533); test: Detection of phosphorylated EGFR (pEGFR) in EGF-stimulated A431 cells (AlphaLISA); type: cell-based; conditions: A431 cells (10% FBS), 4 hours incubation, EGF 30 ng/mL for 10 minutes
T1 construct: performed to measure phosphorylated EGFR levels using A431 cells; endogenous in cells; host or cells: A431
Outline: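 Cells in 10% FBS treated with compound 4 h at 37° C., then stimulated 10 min with 30 ng/mL EGF, lysed, and pEGFR measured by AlphaLISA. Inhibition normalized to DMSO and staurosporine controls; IC50 from four-parameter logistic fit.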

[2] = target: T2, phosphorylated ERBB2 (pERBB2) (Homo sapiens, UniProt P04626); test: Detection of phosphorylated ERBB2 (pERBB2) by ELISA in BT-474 cells; type: cell-based; conditions: four hour incubation with compound
T2 construct: endogenous in cells; host or cells: BT-474
Outline: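 BT-474 cells treated 4 h at 37 °C, 5% CO2 with four-fold dilutions (10 μM to 0.01 nM final). Lysates analysed by ELISA for pERBB2, TMB read at OD 450 nm. % relative activity normalised to no-cell (low) and 0.1% DMSO-treated (high) controls.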

Ba/F3 ERBB2 YVMA = Ba/F3 ERBB2 YVMA (Homo sapiens, UniProt P04626, DUP772-775, cells depend on it); test: Cell viability assay (CellTiter Glo) in Ba/F3 cells engineered to express ERBB2 YVMA; type: cell-based, mouse; conditions: Ba/F3 cells expressing human ERBB2 YVMA mutant, 72 hours, % viability, read-out: Ba/F3 ERBB2 YVMA IC50
Outline: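 IL-3-independent mouse Ba/F3 line stably transduced with human ERBB2 YVMA, seeded at 3000 cells/well, exposed to serially diluted compound (≤0.1% DMSO) for 72 h at 37° C. ATP read by CellTiter Glo luminescence, normalised to DMSO and media-only controls; sigmoidal nonlinear regression fit.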

Chain of Ba/F3 ERBB2 YVMA (P04626 with tags, fused parts or gaps DUP772-775): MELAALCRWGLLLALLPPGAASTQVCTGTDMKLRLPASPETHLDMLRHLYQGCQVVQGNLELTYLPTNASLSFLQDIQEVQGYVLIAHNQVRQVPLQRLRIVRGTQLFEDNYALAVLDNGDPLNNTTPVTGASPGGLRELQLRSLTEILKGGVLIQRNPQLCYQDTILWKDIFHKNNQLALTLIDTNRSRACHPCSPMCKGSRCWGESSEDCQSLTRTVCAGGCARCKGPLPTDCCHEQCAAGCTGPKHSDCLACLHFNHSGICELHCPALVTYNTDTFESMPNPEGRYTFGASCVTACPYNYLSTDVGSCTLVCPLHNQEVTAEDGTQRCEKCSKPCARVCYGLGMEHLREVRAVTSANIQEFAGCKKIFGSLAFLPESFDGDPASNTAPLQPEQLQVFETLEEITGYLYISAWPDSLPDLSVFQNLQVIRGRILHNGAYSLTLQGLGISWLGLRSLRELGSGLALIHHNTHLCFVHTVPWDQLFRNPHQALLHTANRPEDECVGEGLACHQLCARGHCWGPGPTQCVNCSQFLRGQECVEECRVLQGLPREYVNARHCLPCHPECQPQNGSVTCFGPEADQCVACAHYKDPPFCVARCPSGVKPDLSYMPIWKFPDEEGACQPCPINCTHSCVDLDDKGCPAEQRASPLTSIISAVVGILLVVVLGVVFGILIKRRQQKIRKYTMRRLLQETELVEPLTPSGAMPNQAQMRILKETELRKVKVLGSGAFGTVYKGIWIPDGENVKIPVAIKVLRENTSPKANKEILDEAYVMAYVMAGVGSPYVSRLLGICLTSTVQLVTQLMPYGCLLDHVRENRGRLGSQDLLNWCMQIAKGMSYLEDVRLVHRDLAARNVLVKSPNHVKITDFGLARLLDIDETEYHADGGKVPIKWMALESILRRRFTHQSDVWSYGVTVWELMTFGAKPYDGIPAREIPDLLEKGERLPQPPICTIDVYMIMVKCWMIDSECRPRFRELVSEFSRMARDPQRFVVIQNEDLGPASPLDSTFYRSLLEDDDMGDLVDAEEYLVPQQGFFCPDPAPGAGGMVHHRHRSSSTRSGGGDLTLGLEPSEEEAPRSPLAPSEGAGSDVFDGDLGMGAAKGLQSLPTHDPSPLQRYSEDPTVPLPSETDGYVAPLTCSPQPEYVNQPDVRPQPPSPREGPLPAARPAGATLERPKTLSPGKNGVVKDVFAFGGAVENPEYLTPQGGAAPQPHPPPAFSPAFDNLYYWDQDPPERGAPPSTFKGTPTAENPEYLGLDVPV
T1 sequence (P00533 25-1210): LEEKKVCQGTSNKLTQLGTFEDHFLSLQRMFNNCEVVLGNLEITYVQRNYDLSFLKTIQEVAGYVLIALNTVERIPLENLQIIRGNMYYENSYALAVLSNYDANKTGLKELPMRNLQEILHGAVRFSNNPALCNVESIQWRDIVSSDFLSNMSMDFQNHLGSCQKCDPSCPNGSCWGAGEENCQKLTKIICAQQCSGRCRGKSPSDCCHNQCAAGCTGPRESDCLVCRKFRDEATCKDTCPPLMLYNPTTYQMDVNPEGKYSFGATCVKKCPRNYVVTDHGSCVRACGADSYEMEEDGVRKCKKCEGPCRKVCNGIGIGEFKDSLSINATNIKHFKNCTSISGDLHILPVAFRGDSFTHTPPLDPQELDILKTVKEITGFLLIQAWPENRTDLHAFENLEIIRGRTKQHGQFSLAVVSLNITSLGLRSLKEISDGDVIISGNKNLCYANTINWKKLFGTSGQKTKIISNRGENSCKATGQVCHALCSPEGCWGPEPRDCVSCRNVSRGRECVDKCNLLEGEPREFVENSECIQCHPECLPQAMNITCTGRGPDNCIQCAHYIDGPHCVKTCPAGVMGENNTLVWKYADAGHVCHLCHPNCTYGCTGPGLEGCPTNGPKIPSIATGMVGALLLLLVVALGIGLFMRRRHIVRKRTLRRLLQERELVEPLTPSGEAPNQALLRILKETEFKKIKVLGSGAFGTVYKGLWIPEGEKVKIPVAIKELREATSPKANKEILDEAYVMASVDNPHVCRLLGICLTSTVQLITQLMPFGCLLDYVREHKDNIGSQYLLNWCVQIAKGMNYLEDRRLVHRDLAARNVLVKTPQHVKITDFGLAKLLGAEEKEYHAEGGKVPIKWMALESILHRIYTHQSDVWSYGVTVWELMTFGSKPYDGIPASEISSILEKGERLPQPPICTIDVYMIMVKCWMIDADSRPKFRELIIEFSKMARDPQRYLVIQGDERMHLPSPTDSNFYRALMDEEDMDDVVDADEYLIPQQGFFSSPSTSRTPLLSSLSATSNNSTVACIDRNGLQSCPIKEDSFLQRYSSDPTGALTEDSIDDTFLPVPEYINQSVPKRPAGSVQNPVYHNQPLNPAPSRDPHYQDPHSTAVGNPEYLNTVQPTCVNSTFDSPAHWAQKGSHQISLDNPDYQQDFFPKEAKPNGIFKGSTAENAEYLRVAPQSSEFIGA
T2 sequence (P04626 23-1255): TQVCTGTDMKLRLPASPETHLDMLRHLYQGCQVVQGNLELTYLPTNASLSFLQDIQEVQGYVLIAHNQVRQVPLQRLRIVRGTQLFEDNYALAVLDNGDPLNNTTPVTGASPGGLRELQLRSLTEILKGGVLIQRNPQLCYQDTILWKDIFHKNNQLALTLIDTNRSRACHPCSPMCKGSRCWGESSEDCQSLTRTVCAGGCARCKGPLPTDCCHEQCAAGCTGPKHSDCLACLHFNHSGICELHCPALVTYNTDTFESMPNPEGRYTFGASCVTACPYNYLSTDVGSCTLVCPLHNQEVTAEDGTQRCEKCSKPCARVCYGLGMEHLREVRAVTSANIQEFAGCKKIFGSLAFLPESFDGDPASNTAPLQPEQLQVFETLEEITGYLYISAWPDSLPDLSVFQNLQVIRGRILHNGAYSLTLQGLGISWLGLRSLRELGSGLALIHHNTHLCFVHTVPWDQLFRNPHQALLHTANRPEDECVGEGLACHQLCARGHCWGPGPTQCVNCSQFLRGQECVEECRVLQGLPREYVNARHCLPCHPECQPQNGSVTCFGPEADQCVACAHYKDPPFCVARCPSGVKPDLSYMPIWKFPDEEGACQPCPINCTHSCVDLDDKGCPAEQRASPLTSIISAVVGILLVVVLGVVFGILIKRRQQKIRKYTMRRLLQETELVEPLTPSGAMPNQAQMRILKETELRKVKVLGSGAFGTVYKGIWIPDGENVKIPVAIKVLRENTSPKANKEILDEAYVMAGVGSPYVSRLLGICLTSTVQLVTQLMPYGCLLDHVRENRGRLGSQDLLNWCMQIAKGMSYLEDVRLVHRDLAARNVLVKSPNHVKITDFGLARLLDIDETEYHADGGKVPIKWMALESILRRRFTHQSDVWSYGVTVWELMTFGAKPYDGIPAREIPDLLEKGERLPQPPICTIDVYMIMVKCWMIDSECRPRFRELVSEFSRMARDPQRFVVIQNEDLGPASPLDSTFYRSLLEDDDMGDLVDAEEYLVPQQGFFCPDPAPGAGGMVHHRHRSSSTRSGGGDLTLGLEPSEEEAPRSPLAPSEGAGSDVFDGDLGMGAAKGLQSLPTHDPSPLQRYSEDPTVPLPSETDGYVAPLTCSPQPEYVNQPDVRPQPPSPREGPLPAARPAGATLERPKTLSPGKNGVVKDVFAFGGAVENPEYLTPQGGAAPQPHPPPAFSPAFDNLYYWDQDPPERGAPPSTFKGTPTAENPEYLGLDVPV

SMILES | IC50 [1] [nM] | IC50 [2] [nM] | GI50 (Ba/F3 ERBB2 YVMA) [nM]
C=CC(=O)N1CC[C@@H](Nc2ccc3ncnc(Nc4ccc(Oc5ccn6ncnc6c5)c(C)c4)c3n2)C1 [Compound 44, 1-[(3R)-3-({4-[(3-methyl-4-{[1,2,4]triazolo[1,5-a]pyridin-7-yloxy}phenyl)amino]pyrido[3,2-d]pyrimidin-6-yl}amino)pyrrolidin-1-yl]prop-2-en-1-one] | 268 | 6.33 | 2.58
C=CC(=O)N1CCN(c2ncc3ncnc(Nc4ccc(Oc5ccn6ncnc6c5)c(C)c4)c3n2)CC1 [Compound 45, 1-(4-{8-[(3-methyl-4-{[1,2,4]triazolo[1,5-a]pyridin-7-yloxy}phenyl)amino]pyrimido[5,4-d][1,3]diazin-2-yl}piperazin-1-yl)prop-2-en-1-one] | 667 | 9.23 | 4.5
C=CC(=O)N1CCCC2(C1)CN(c1ccc3ncnc(Nc4ccc(Oc5ccn6ncnc6c5)c(C)c4)c3n1)C2 [Compound 46, 1-(2-{4-[(3-methyl-4-{[1,2,4]triazolo[1,5-a]pyridin-7-yloxy}phenyl)amino]pyrido[3,2-d]pyrimidin-6-yl}-2,6-diazaspiro[3.5]nonan-6-yl)prop-2-en-1-one] | > 10000 | 45.3 | 24.6
C=CC(=O)N1CCN(c2ccc3ncnc(Nc4ccc(Oc5ccc6c(c5)ncn6C)c(C)c4)c3n2)C[C@@H]1C [Compound 47, 1-[(2S)-2-methyl-4-[4-({3-methyl-4-[(1-methyl-1,3-benzodiazol-5-yl)oxy]phenyl}amino)pyrido[3,2-d]pyrimidin-6-yl]piperazin-1-yl]prop-2-en-1-one] | 2440 | 30 | 14
C=CC(=O)N1CCN(c2ccc3ncnc(Nc4ccc(Oc5ccc6c(c5)ncn6C)c(C)c4)c3n2)C[C@H]1C [Compound 48, 1-[(2R)-2-methyl-4-[4-({3-methyl-4-[(1-methyl-1,3-benzodiazol-5-yl)oxy]phenyl}amino)pyrido[3,2-d]pyrimidin-6-yl]piperazin-1-yl]prop-2-en-1-one] | 1200 | 33.2 | 18.3
C=CC(=O)N1CC[C@H](Oc2ccc3ncnc(Nc4ccc(Oc5ccc6c(c5)ncn6C)c(C)c4)c3n2)C1 [Compound 49, 1-[(3S)-3-{[4-({3-methyl-4-[(1-methyl-1,3-benzodiazol-5-yl)oxy]phenyl}amino)pyrido[3,2-d]pyrimidin-6-yl]oxy}pyrrolidin-1-yl]prop-2-en-1-one] | 346 | 56.9 | 15.7
CC#CC(=O)N1CC[C@H](Oc2ccc3ncnc(Nc4ccc(Oc5ccc6c(c5)ncn6C)c(C)c4)c3n2)C1 [Compound 50, 1-[(3S)-3-{[4-({3-methyl-4-[(1-methyl-1,3-benzodiazol-5-yl)oxy]phenyl}amino)pyrido[3,2-d]pyrimidin-6-yl]oxy}pyrrolidin-1-yl]but-2-yn-1-one] | > 10000 | 480 | 52
C=CC(=O)N1CCN(c2ccc3ncnc(Nc4ccc(Cc5ccn6ncnc6c5)c(C)c4)c3n2)C[C@H]1C [Compound 51, 1-[(2R)-2-methyl-4-{4-[(3-methyl-4-{[1,2,4]triazolo[1,5-a]pyridin-7-ylmethyl}phenyl)amino]pyrido[3,2-d]pyrimidin-6-yl}piperazin-1-yl]prop-2-en-1-one] | 1670 | 20.9 | 5.71
C=CC(=O)N1CCN(c2cc3c(Nc4ccc(Cc5ccn6ncnc6c5)c(C)c4)ncnc3cn2)C[C@H]1C [Compound 52, (R)-1-(4-(4-((4-([1,2,4]triazolo[1,5-a]pyridin-7-ylmethyl)-3-methylphenyl)amino)pyrido[3,4-d]pyrimidin-6-yl)-2-methylpiperazin-1-yl)prop-2-en-1-one] | > 10000 | 50.6 | 120
C=CC(=O)N1CCN(c2ccc3ncnc(Nc4ccc(Cc5ccc6c(c5)ncn6C)c(C)c4)c3n2)C[C@H]1C [Compound 53, 1-[(2R)-2-methyl-4-[4-({3-methyl-4-[(1-methyl-1,3-benzodiazol-5-yl)methyl]phenyl}amino)pyrido[3,2-d]pyrimidin-6-yl]piperazin-1-yl]prop-2-en-1-one] | 1460 | 35.4 | 14
C=CC(=O)N1CCN(c2ccc3ncnc(Nc4ccc(Cc5ccc6c(c5)ncn6C)c(C)c4)c3c2)C[C@H]1C [Compound 54, 1-[(2R)-2-methyl-4-[4-({3-methyl-4-[(1-methyl-1,3-benzodiazol-5-yl)methyl]phenyl}amino)quinazolin-6-yl]piperazin-1-yl]prop-2-en-1-one] | 2420 | 21.9 | 48.2

Continued, in another order:

IC50 [1] [nM] | IC50 [2] [nM] | SMILES | GI50 (Ba/F3 ERBB2 YVMA) [nM]
2580 | 12 | C=CC(=O)N1CCN(c2cc3c(Nc4ccc(Oc5ccn6ncnc6c5)c(C)c4)ncnc3cn2)C[C@H]1C [Compound 55, 1-[(2R)-2-methyl-4-{4-[(3-methyl-4-{[1,2,4]triazolo[1,5-a]pyridin-7-yloxy}phenyl)amino]pyrido[3,4-d]pyrimidin-6-yl}piperazin-1-yl]prop-2-en-1-one] | 18.5
1050 | 14.8 | C=CC(=O)N1CCN(c2ncc3ncnc(Nc4ccc(Oc5ccn6ncnc6c5)c(C)c4)c3n2)C[C@H]1C [Compound 56, 1-[(2R)-2-methyl-4-{8-[(3-methyl-4-{[1,2,4]triazolo[1,5-a]pyridin-7-yloxy}phenyl)amino]pyrimido[5,4-d][1,3]diazin-2-yl}piperazin-1-yl]prop-2-en-1-one] | 7.86
2880 | 25.8 | C=CC(=O)N1CCN(c2ncc3ncnc(Nc4ccc(Oc5ccc6c(c5)ncn6C)c(C)c4)c3n2)C[C@H]1C [Compound 57, (R)-1-(2-methyl-4-(8-((3-methyl-4-((1-methyl-1H-benzo[d]imidazol-5-yl)oxy)phenyl)amino)pyrimido[5,4-d]pyrimidin-2-yl)piperazin-1-yl)prop-2-en-1-one] | 21
2460 | 31.4 | C=CC(=O)N1CCN(c2ccc3ncnc(Nc4ccc(Oc5ccc6c(c5)ncn6C)c(C)c4)c3c2)C[C@H]1C [Compound 58, 1-[(2R)-2-methyl-4-[4-({3-methyl-4-[(1-methyl-1,3-benzodiazol-5-yl)oxy]phenyl}amino)quinazolin-6-yl]piperazin-1-yl]prop-2-en-1-one] | 24.1
3800 | 20.1 | C=CC(=O)N1CCN(c2cc3c(Nc4ccc(Oc5ccc6c(c5)ncn6C)c(C)c4)ncnc3cn2)C[C@H]1C [Compound 59, 1-[(2R)-2-methyl-4-[4-({3-methyl-4-[(1-methyl-1,3-benzodiazol-5-yl)oxy]phenyl}amino)pyrido[3,4-d]pyrimidin-6-yl]piperazin-1-yl]prop-2-en-1-one] | 27.4
3780 | 23.7 | C=CC(=O)N1[C@H](C)CN(c2ccc3ncnc(Nc4ccc(Oc5ccn6ncnc6c5)c(C)c4)c3n2)C[C@@H]1C [Compound 60, 1-(cis-4-(4-((4-([1,2,4]triazolo[1,5-a]pyridin-7-yloxy)-3-methylphenyl)amino)pyrido[3,2-d]pyrimidin-6-yl)-2,6-dimethylpiperazin-1-yl)prop-2-en-1-one] | 14.3
> 10000 | 254 | C=CC(=O)N1[C@H](C)CN(c2ccc3ncnc(Nc4ccc(Oc5ccn6ncnc6c5)c(C)c4)c3n2)C[C@H]1C [Compound 61, 1-[(2R,6R)-2,6-dimethyl-4-{4-[(3-methyl-4-{[1,2,4]triazolo[1,5-a]pyridin-7-yloxy}phenyl)amino]pyrido[3,2-d]pyrimidin-6-yl}piperazin-1-yl]prop-2-en-1-one] | > 500
> 10000 | 46.9 | C=CC(=O)N1CCN(c2ccc3ncnc(Nc4ccc(Cc5ccn6ncnc6c5)c(C)c4)c3c2F)C[C@H]1C [Compound 62, 1-[(2R)-4-{5-fluoro-4-[(3-methyl-4-{[1,2,4]triazolo[1,5-a]pyridin-7-ylmethyl}phenyl)amino]quinazolin-6-yl}-2-methylpiperazin-1-yl]prop-2-en-1-one] | 22.7
5500 | 21.4 | C=CC(=O)N1CCN(c2ccc3ncnc(Nc4ccc(Oc5ccn6ncnc6c5)c(C)c4)c3c2F)C[C@H]1C [Compound 63, (R)-1-(4-(4-((4-([1,2,4]triazolo[1,5-a]pyridin-7-yloxy)-3-methylphenyl)amino)-5-fluoroquinazolin-6-yl)-2-methylpiperazin-1-yl)prop-2-en-1-one] | 10.5
2520 | 38.6 | C=CC(=O)N1CCN(c2ccc3ncnc(Nc4ccc(Oc5ccc6c(c5)ncn6C)c(C)c4)c3c2F)C[C@H]1C [Compound 64, 1-[(2R)-4-[5-fluoro-4-({3-methyl-4-[(1-methyl-1,3-benzodiazol-5-yl)oxy]phenyl}amino)quinazolin-6-yl]-2-methylpiperazin-1-yl]prop-2-en-1-one] | 12.4
